Source: ChEMBL document CHEMBL1122740, “Bicyclic lactam inhibitors of angiotensin converting enzyme” (J Med Chem, 1984)
Values joined by “and” are separate entries in the source; they are usually repeats but may differ in a detail not shown here. Equal values may be shown once.

Biological target: T1, Angiotensin-converting enzyme (Oryctolagus cuniculus, UniProt P12822)
T1 sequence (P12822 whole entry): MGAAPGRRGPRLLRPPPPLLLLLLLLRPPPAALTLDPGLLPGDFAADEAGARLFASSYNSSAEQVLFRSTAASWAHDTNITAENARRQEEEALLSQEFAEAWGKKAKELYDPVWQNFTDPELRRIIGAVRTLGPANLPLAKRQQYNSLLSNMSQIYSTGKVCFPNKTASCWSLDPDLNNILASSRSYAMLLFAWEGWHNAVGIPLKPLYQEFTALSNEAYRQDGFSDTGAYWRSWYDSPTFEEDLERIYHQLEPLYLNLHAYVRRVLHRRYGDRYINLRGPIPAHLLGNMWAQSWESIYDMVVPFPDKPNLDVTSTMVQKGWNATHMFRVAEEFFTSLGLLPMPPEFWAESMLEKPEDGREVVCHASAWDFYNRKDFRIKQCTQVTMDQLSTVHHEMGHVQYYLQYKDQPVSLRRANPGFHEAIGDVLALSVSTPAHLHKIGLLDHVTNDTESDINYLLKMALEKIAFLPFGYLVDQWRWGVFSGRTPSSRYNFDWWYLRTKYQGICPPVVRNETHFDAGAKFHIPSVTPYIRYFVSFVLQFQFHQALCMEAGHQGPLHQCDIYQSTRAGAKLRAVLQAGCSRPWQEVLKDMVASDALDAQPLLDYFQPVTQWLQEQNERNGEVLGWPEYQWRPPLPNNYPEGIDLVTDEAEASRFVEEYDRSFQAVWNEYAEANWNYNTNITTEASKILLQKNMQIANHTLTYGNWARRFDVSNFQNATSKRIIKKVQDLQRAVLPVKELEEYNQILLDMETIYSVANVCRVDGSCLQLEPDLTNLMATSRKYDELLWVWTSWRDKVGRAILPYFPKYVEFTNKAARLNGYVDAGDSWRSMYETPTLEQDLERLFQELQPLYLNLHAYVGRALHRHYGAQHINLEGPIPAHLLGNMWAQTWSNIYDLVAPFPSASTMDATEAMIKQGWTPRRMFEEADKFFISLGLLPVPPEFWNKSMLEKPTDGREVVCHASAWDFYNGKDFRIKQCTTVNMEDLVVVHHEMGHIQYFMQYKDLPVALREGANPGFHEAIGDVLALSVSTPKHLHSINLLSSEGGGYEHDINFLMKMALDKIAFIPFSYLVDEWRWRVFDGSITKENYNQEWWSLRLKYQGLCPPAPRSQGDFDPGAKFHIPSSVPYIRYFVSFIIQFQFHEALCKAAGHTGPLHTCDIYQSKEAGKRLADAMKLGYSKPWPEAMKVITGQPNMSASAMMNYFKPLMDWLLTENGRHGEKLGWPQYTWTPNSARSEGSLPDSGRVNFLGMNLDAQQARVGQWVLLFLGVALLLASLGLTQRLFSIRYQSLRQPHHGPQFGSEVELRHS
Experiment: Ability to inhibit Angiotensin I converting enzyme was determined

SMILES	IC50
CC(C(=O)O)N1CCCCCC(CS)C1=O (stereo not given)	53 nM
O=C(O)CN1CCCCC(CS)C1=O (stereo not given)	170 nM
O=C(O)CN1CCCC(CS)C1=O (stereo not given)	1500 nM and 3400 nM

More lines, in order of falling IC50, values ahead:

IC50	SMILES
9 nM	O=C(O)CN1C(=O)C(CS)CCc2ccccc21 (stereo not given)
4 nM	O=C(O)CN1C(=O)C(CS)CCCc2ccccc21 (stereo not given)
